The structures appear in SMILES notation.

The term melting point denotes the temperature, or range, at which the solid turns liquid. `CCCCc1nc(Cl)c(C=O)n1Cc1ccc([N+](=O)[O-])cc1` gave a melting point of 88 to 89 °C.
The compound `CCCCCCCCCOc1ccc(-c2ccc(Br)cc2)c(F)c1F` returned a melting point of 46 to 47.5 °C.
In the case of `COCC(=O)Nc1nc2ccc([N+](=O)[O-])cc2s1` it was 230 to 233 °C.
To `COc1ccc(-c2ocnc2-c2cc(OC)c(O)c(OC)c2)cc1N` belongs 101 to 102 °C; to `C[C@H](CN1CC[C@@H](F)C1)NC(=O)c1c[nH]c2ncc(-c3nn(C)c4cc(Cl)ccc34)nc12`, 233 to 234 °C.
The compound `CCOC(=O)CCc1cc(O)nn1C` had a melting point of 132 to 135 °C.
`CCc1cn(C2CC(O)C(CNC(=O)Cc3cccs3)O2)c(=O)[nH]c1=O` (stereo unspecified) had a melting point of 215 to 217 °C.
To `Oc1ccc(-c2nc(-c3ccc(F)cc3)c(-c3ccncc3)[nH]2)cc1` belongs 214 to 215 °C.
In the case of `O=C(NCCCCCCCNC(=O)c1ccc(OC(F)(F)F)cc1)c1ccc(OC(F)(F)F)cc1` it was 150 to 151 °C.
For the compound `CCOCCOc1cc(C)c(-c2cccc(COc3ccc(C=CC(=O)OC)cc3)c2)c(C)c1`, the melting point was found to be 69 °C.
In the case of `CCOc1ccc(Nc2c([N+](=O)[O-])cc([N+](=O)[O-])c(Cl)c2C(=O)O)cc1` it was 202 to 206 °C; in that of `CCN1C(=O)C(C)(C)C(=O)N(C)c2cc(C(=O)O)ccc21`, 296 to 299 °C; in that of `CCOC(=O)c1ccc(C(=O)CN2CCN(c3ccncc3)CC2)cc1`, 147 to 149 °C.
`OP(O)C(C=Cc1ccccc1)NC(c1ccccc1)c1ccccc1` (stereo unspecified): the melting point lay in the range of 202 to 203 °C.
To `COc1ccc2cc(Br)ccc2c1[N+](=O)[O-]` belongs 151 to 152 °C.
In the case of `CC(C)(C)NC(=O)c1ccc(I)cc1` it was 149 to 150 °C.
Regarding `COCCc1nc2c(N)nc3ccc(Br)cc3c2n1CCCN1CCCC1=O`, the melting point fell in the range of 185 to 188 °C.
Compound `Fc1ccc(-c2ncn(CCCCN3CCOCC3)c2-c2ccncc2)cc1` yielded a melting point of 103 to 104 °C.
`CS(=O)(=O)NC(=O)N[C@H]1CCN(c2ccc3c(NC(=O)CC4CCCCC4)c(Cl)ccc3n2)C1` yielded a melting point of 303 to 307 °C.
On to `OCc1cnc2n1-c1ccc(Cl)cc1C(c1ccccc1)=NC2`, for which the melting point was in the range of 210 to 213 °C.
To `Cc1ccnc(-c2ccc(C(F)(F)F)cc2)n1` belongs 50 °C; to `CCN(CC)C(=O)c1cc2ccccc2[nH]1`, 108 to 110 °C.
The compound `O=[N+]([O-])c1ccc(F)c(CNCCO)c1` had a melting point of 93 to 94 °C.
In turn, `N#CC(C(=O)Nc1ccc(S(=O)(=O)C(F)(F)F)cc1)=C(O)C1CC1` showed a melting point of 168 to 170 °C.
To `COc1ccc(-c2nc(CC(N)=O)sc2-c2ccc(OC)cc2)cc1` belongs 124 to 127 °C; to `CC(Oc1ccccc1)c1nnc(N)s1` (stereo unspecified), 157 to 167 °C.
For the compound `O=C(O)c1cc(=O)c2cccc(/C=C/c3ccc(OCCCCc4ccccc4)cc3)c2o1`, the melting point lay within 159 to 161 °C.
In the case of `CCCNC(=O)[C@H](C)C[C@H](O)[C@H](CC1CCCCC1)NC(=O)[C@H](Cc1cscn1)NC(=O)OC(C)(C)C` it was 182 to 184 °C; in that of `COC(=O)c1ccc(Cn2c(C=Cc3ccc(OC)c(OC)c3)nc3c(OC)c(C)c(C)c(OC)c32)cc1`, 111 to 114 °C; in that of `O=Cc1cnc(-c2ccc(F)cc2)nc1`, 168 °C.
In the case of `c1ccc2c(c1)C[C@H]1CSC(=Nc3nccs3)N1C2` it was 158 °C; in that of `Cc1cc(C(C)N(O)C(=O)NCCO)c(C)s1` (stereo unspecified), 122 to 124 °C; in that of `O=C1N(Cc2ccc3ncnn3c2)c2ccccc2C12COc1cc3c(cc12)OCCO3` (stereo unspecified), 207 to 209 °C.
In the case of `CC(=O)NC1(C)CCN(CCCOc2ccc(F)cc2)CC1`, the melting point is 103 °C.
In the case of `Cc1nc2c(OCc3ccccc3)cc(CO)cc2n1C` it was 213 to 214 °C.
Take `COc1ccc(C(=O)NCCc2ccccc2C)cc1`: the melting point was 81.8 to 82.1 °C.

(Values after a melting point compilation (Tetko et al.; mined from patent text by program, amines drawn as free bases though some values may be those of a salt).)
